This passage reports melting point results from patent US7067535B2, “5-Phenylbenzylamine compounds, process for their production and intermediates for their synthesis” (Tanabe Seiyaku Co., Ltd., priority 2000, dated 2006).

Structures are written as SMILES. Counter-ions that a name gives are not always drawn.

As a reminder, the melting point is the temperature of the solid-liquid transition.

Take `COc1ccc(-c2ccc(F)cc2)cc1[C@H](C)N[C@H]1CCCN[C@H]1c1ccccc1` (as salt: hydrochloride) [Example 102, [2-methoxy-5-(4-fluorophenyl)-(S)-α-methylbenzyl][(2S,3S)-2-phenylpiperidin-3-yl]amine dihydrochloride]: the melting point was 274 to 278 °C (dec.). With `COc1ccc(-c2ccc(C#N)cc2)cc1CN[C@H]1CCCN[C@H]1c1ccccc1` [Example 16, [2-methoxy-5-(4-cyanophenyl)benzyl][(2S,3S)-2-phenylpiperidin-3-yl]amine], the melting point is 277 to 278 °C (dec.). The value for `COc1ccc(-c2ccc(Cl)cc2)cc1CN[C@H]1CCCN[C@H]1c1ccccc1` [Example 7, [2-methoxy-5-(4-chlorophenyl)benzyl][(2S,3S)-2-phenylpiperidin-3-yl]amine] was 272 to 274 °C (dec.). As for `COc1ccc(-c2ccc(C#N)cc2)cc1CN[C@H]1CC[C@@H](C)N[C@H]1c1ccccc1` [Example 113, [2-methoxy-5-(4-cyanophenyl)benzyl][(2S,3S,6R)6-methyl-2-phenylpiperidin-3-yl]amine], the melting point fell in the range of 298 to 300 °C. With `COc1ccc(-c2ccc(F)cc2)cc1CN[C@H]1CCCN[C@H]1c1ccccc1.Cl.Cl`, the melting point is 277 to 279 °C (dec.).

For the compound `COc1ccc(-c2ccc(F)cc2)cc1CN[C@H]1CCCN(Cc2n[nH]c(=O)[nH]2)[C@H]1c1ccccc1` (as salt: hydrochloride) [Example 104, (2S,3S)-1-[5(4H)-oxo-1,2,4-triazol-3-yl]methyl-2-phenyl-3-[[2-methoxy-5-(4-fluorophenyl)benzyl]amino]piperidine dihydrochloride], the melting point is 198 to 200 °C (dec.).

With `COc1ccc(-c2ccc(C#N)cc2F)cc1CN[C@H]1CCCN[C@H]1c1ccccc1` [Example 51, [2-methoxy-5-(2-fluoro-4-cyanophenyl)benzyl][(2S,3S)2-phenylpiperidin-3-yl]amine], the melting point is 280 to 281 °C (dec.). To `COc1ccc(-c2ccc(F)cc2)cc1CN[C@H]1CCCN(Cc2n[nH]c(=S)[nH]2)[C@H]1c1ccccc1` (as salt: hydrochloride) [Example 105, (2S,3S)-1-[5(4H)-thioxo-1,2,4-triazol-3-yl]methyl-2-phenyl-3-[[2-methoxy-5-(4-fluorophenyl)benzyl]amino]piperidinedihydrochloride] belongs 180 to 182 °C (dec.); to `COc1ccc(-c2ccc(F)cc2)cc1CN[C@H]1CCCN(Cc2n[nH]c(=O)o2)[C@H]1c1ccccc1` (as salt: hydrochloride) [Example 106, (2S,3S)-1-[5(4H)-oxo-1,3,4-oxadiazol-2-yl]methyl-2-phenyl-3-[[2-methoxy-5-(4-fluorophenyl)benzyl]amino]piperidine-dihydrochloride], 212 to 216 °C (dec.); to `COc1ccc(-c2ccc(F)cc2)cc1[C@@H](C)N[C@H]1CCCN[C@H]1c1ccccc1` (as salt: hydrochloride) [Example 101, [2-methoxy-5-(4-fluorophenyl)-(R)-α-methylbenzyl][(2S,3S)-2-phenylpiperidin-3-yl]amine dihydrochloride], 200 to 204 °C (dec.). The value for `COc1ccc(-c2ccc(C#N)cc2F)cc1CN[C@H]1CC[C@@H](C)N[C@H]1c1ccccc1` [Example 112, [2-methoxy-5-(2-fluoro-4-cyanophenyl)benzyl]-[(2S,3S,6R)-6-methyl-2-phenylpiperidin-3-yl]amine] was 301 to 302 °C (dec.); that for `COc1ccc(-c2ccc(F)cc2)cc1CN[C@H]1CCCN(Cc2nnc[nH]2)[C@H]1c1ccccc1` (as salt: hydrochloride) [Example 103, (2S,3S)-1-(1,2,4-triazol-3-ylmethyl)-2-phenyl-3-[[2-methoxy-5-(4-fluorophenyl)benzyl]amino]piperidine trihydrochloride] was 208 to 210 °C (dec.); that for `COc1ccc(-c2ccccc2C(F)(F)F)cc1CN[C@H]1CCCN[C@H]1c1ccccc1.Cl.Cl` (racemic) was 260 to 262 °C.
